Several values for one entry are separate records, joined by “and”; a condition that tells them apart may be missing. Equal entries are not always repeated. Where two headings read alike, the source gives them in different places.
Experiments:
[1] = Kinetic profiles of administered and generated stereoisomers in brain, CSF and plasma of rats after oral administration; type: in vivo, male Sprague-Dawley (SD) rats; details: for AUC0-180 min, brain / Cmax, brain: rat brain; for AUC(0-t) / Cmax / half-life / Kp / Tmax: male, Sprague-Dawley, po; for half-life: read-out: t 1/2, plasma; for Kp / Tmax: rat; for Tmax: plasma
Source text: Male Sprague-Dawley (SD) rats were provided by the Laboratory Animal Service Center of The Chinese University of Hong Kong, Hong Kong, China. Animals were housed in cages during the study period under standard conditions of temperature, humidity, and light. All animal experiments were approved by the Animal Ethics Committee of The Chinese University of Hong Kong.
One day before the experiment, the male SD rats (160-200 g) were fasted overnight with free access to water. […] The dosage was the same as used in the previous pharmacodynamics studies. […] The rats were exsanguinated by cardiac puncture under anesthesia, followed by collecting their CSF (about 100 μL) through a single puncture in the cisterna magna. Plasma was obtained by centrifugation of blood at 6,000 × g for 8 min at 4°C. After blood collection, the animals were perfused transcardially with normal saline until total blood volume was removed. Then, the whole brain was promptly collected, and the surface water was blotted dry with Kimwipes (Kimberly-Clark™). Blood vessels and meninges were carefully removed with forceps and the brain was weighted. All samples were stored at −20°C until analysis.
Brain homogenate was freshly prepared by homogenizing brain tissues in normal saline (1:2, w/v). Homogenization was conducted in an ice bath using the IKA T10 basic ULTRA-TURRAX Homogenizer for 20–30 s.
The biological samples including brain homogenate, CSF, and plasma (50 μL each) were deproteinized by adding 150 μL of acetonitrile (containing 20 ng/mL IS). After vortex mixing for 1 min, the mixture was centrifuged (20,000 × g) for 10 min at 4°C. After centrifugation, an aliquot (5 μL) of supernatant was subjected to the LC-MS/MS analysis.
The chromatographic separation was achieved on ZORBAX Eclipse Plus C18 column (2.1 × 100 mm, 1.8 μm, Agilent) maintained at 40°C temperature at a flow rate of 0.3 mL/min. A gradient mobile phase consisting of 0.1% formic acid in acetonitrile (A) and 0.1% formic acid in water (B) was eluted as follows: 0–1 min, A, 15–20%; 1–5 min, A, 20–25%; 5–7 min, A, 25–95%; 7–10 min, A held at 95% and returned to the initial condition (acetonitrile-water ratio 15 : 85) for a 3 min equilibration. The temperature of the auto-sampler was kept at 4°C.
All the data were processed using Agilent MassHunter Workstation Software Quantitative Analysis Version B.07.00/Build 7.0.457.0 (Agilent).
Kinetic parameters were calculated using the WinNonlin software (Version 4.0, Pharsight Corp, Mountain View, CA, US) employing a noncompartmental model approach. Epimerization ratio was calculated by AUC(generated stereoisomer)/(AUC(generated stereoisomer) + AUC(administered stereoisomer)) × 100%. The brain-to-plasma partition coefficient (Kp, Brain) was calculated by AUCBrain/AUCPlasma, and the CSF-to-plasma partition coefficient (Kp, CSF) was calculated by AUCCSF/AUCPlasma.
All the data in the study were expressed as mean ± SEM. Statistical analyses were performed using GraphPad Prism 6.0 (GraphPad Software Inc, San Diego, CA, US) using two tailed unpaired t-test for two groups comparison. Statistical significance was set at p value less than 0.05.

[2] = orally administered; cited from earlier work
[3] = design: method as in earlier work; details: cited from earlier work
[4] = tested on: EphA4; design: method as in PMID 24958880; details: cited from earlier work
[5] = tested on: HT22 cell; details: cited from earlier work
[6] = mainly mediated by CYP3A4; cited from earlier work
[7] = tested on: rats with Aβ25-35-induced cognitive deficits; details: oral 20 or 40 mg/kg for 3 weeks; cited from earlier work
[8] = tested on: P-gp efflux transporter; details: cited from earlier work
[9] = tested on: APP/PS1 transgenic mice; design: method as in PMID 24958880; details: oral 50 mg/kg/day for 3-4 weeks; cited from earlier work
[10] = administered stereoisomer, 20 mg/kg p.o., rat CSF
[11] = administered stereoisomer, 20 mg/kg p.o.
[12] = generated stereoisomer after 20 mg/kg p.o. of the other stereoisomer
[13] = administered stereoisomer, 20 mg/kg p.o. of the same compound, rat plasma, mean ± SEM, read-out: AUC0-180 min, plasma (converted)
[14] = administered stereoisomer, 20 mg/kg p.o., rat CSF, read-out: AUC0-180 min, CSF (converted)
[15] = administered stereoisomer, 20 mg/kg p.o., rat plasma
[16] = CSF (relative to plasma), administered stereoisomer, 20 mg/kg p.o., AUCCSF/AUCPlasma, read-out: Kp,CSF (CSF-to-plasma partition coefficient)
[17] = brain (relative to plasma), administered stereoisomer, 20 mg/kg p.o., AUCBrain/AUCPlasma, read-out: Kp,Brain (brain-to-plasma partition coefficient)
[18] = 20 mg/kg, administered stereoisomer, 20 mg/kg p.o., rat plasma

SMILES	Cmax, CSF [1, 10]	Cmax, brain [1, 11]	AUC0-180 min, brain [1, 12]	AUC(0-t) [1, 13]	AUC(0-t) [1, 14]	Cmax [1, 15]	half-life [1, 15]	Kp [1, 16]	Kp [1, 17]	Tmax [1, 18]	Bioavailability [2]	pKa [3]	Inhibition of EphA4 [4]	Neuroprotective activity against glutamate-induced HT22 cell injury [5]	further results
CC[C@H]1CN2CC[C@@]3(C(=O)Nc4ccccc43)[C@@H]2C[C@@H]1/C(=C\OC)C(=O)OC [IRN, Isorhynchophylline]	2.14 ± 0.34 ng/mL	7.35 ± 0.74 ng/g	140.76 ± 1.50 ng·min/g	41.4 ng·h/mL	3.4 ng·h/mL	31.3 ± 1.59 ng/mL	1.07 ± 0.0532 h	0.0821 ± 0.005	0.253 ± 0.0187	≤ 0.5 h	3.3 ± 0.8%	5.20	not	significant neuroprotective activity	AUC0-180 min, brain [1, 11]: 627.37 ± 43.31 ng·min/g; Administered IRN metabolically converted to RN ([1]; after oral administration of IRN 20 mg/kg, rats): at least 47%; Metabolism in rat liver microsomes [6]: much more favorable to be metabolized than RN; Cognitive deficits induced by Aβ25-35 [7]: ameliorated cognitive deficits
CC[C@H]1CN2CC[C@]3(C(=O)Nc4ccccc43)[C@@H]2C[C@@H]1/C(=C\OC)C(=O)OC [RN, rhynchophylline]	7.39 ± 0.17^∗∗∗ ng/mL	16.96 ± 1.92^∗∗ ng/g	296.63 ± 9.49^∗∗ ng·min/g	273 ng·h/mL	12.4 ng·h/mL	191 ± 6.34 ng/mL	2.16 ± 0.155 h	0.0453 ± 0.0002	0.0967 ± 0.0063	≤ 0.5 h	25.9 ± 8.7%	6.32	potent inhibitor	weak effect	AUC0-180 min, brain ([1]; administered stereoisomer, 20 mg/kg p.o., 20 mg/kg): 1587.03 ± 127.82 ng·min/g and 1587.03 ± 127.82^∗∗ ng·min/g; Membrane permeability, effect of P-gp efflux [8]: affected by P-gp efflux transporter; Long-term potentiation in the hippocampus [9]: restored the impaired long-term potentiation
